According to US20040009486A1, “Compositions and methods utilizing DNA polymerases” (priority 1999, published 2004):
Read-outs that look alike come from different tables or passages of the source.

Tests used:
Type in all cases: biochemical
pFL-35:pBluescript = experiment: Fidelity assay with unlabeled ddNTPs; conditions: compared to JDF-3 P410L/A485T
Protocol: A second set of fidelity assays was conducted to address the contribution of rhodamine dye to high ddG:dT and ddT:dC misinsertion frequency. A fluorescently labeled primer (2.5 nM pFL35) opposite dT in the template strand was extended, in reactions containing either correct (ddA) or incorrect (ddG) unlabeled ddNTPs (at concentrations of 1.25 nM to 10 nM) ([…]). Similar experiments were performed in which primer extension occured opposite dC in the template strand, in the presence of correct (ddG) or incorrect (ddT) unlabeled ddNTPs (FIG. 28 panel B). Incorporation of ddNMP at the 3′-end of the primer was detected as a shift in primer mobility.
Fidelity assays using unlabeled ddNTPs (10 μl) contained 2.5 nM primer:template (pFL-35:pBluescript), 1 U DNA polymerase, and 1× reaction buffer. Complementary or non-complementary ddNTP was added to the reaction at concentrations of 0, 1.25, 10, 50, or 100 nM. The reactions were incubated in a Perkin-Elmer 9600 for 25 cycles as follows: 96° C. for 10 s, 50° C. for 5 s, and 60° C. for 30 s, and then analyzed as describe above.

[1] = system: pBL25C and Temp-A, Temp-T, Temp-C, or Temp-G; experiment: Rhodamine labeled ddNTP incorporation, TAMRA- and R110-ddNTPs (FIG. 16)
Protocol: These experiments were performed using 1 unit of enzyme, 15 nM primer:template (pBL25C and Temp-A, Temp-T, Temp-C, or Temp-G in four separate reactions), and 50 nM dye-ddNTP (TAMRA- or R110-labeled). The reactions were incubated at 60° C. for 10 minutes and then quenched with ice-cold 0.2 M EDTA (final concentration). The products were purified from unincorporated dye-labeled ddNTPs and analyzed as described above.
Relative incorporation of rhodamine labeled-ddNTPs by the JDF-3 P410L/A485T and Taq F667Y mutants was determined. We used both TAMRA- and R 110-labeled ddNTPs, and the amount of incorporated dye-ddNTPs was measured in fluorescense units. These experiments were performed using pBL25C as the primer, and Temp-A, Temp-T, Temp-C, or Temp-G as the complementary template in four separate reactions. The only difference between these four primer:template systems is the SNP site, thereby eliminating the possibility that primer:template sequence has an effect on dye-ddNTP incorporation. […] Gardner and Jack had also observed variation in the incorporation of ribonucleotides by the A488L mutant (equivalent to JDF-3 A485) of Vent DNA polymerase (from archaeon Thermococcus litoralis)^15.
We performed similar rhodamine labeled-ddNTP incorporation experiments using the same number of units of Taq F667Y.

pBL34A:pBluescript II = experiment: Kinetics of TAMRA-ddATP insertion versus TAMRA-ddGTP misinsertion opposite dT
Protocol: To determine the kinetics of misinsertion, the steady state Michaelis-Menten Km and Vmax parameters were calculated by incubations of limiting amounts of enzyme (0.1 units or 5 nM) in presence of 50 nM primer:template and varying concentrations of non-complementary rhodamine labeled ddNTP (1 nM to 10,000 nM) for 10 minutes at 60° C. Analysis and quantitations were performed as above.
To gain more insight into the mechanism of lower fidelity, we determined the misinsertion frequency for the mispair ddG:dT, which was evaluated in terms of relative Km and Vmax values for the wrong versus correct dye-ddNTP. Efficiency of nucleotide misinsertion was determined opposite a DNA template dT, primed with a 34-nucleotide oligomer (pBL34A). Apparent Michaelis constant (Km) and maximum velocity (Vmax) and relative insertion frequencies were measured for ddATP and ddGTP (Table X).
To determine the kinetics of misinsertion, Km and Vmax values were calculated by incubating limiting amounts of enzyme (0.1 units, 5 nM) in presence of 50 nM primer:template (pBL34A:pBluescript II) and varying concentrations of non-complementary rhodamine-ddGTP (1-10,000 nM) for 10 minutes at 60° C. Analysis and quantitation were performed as above.

Taq F667Y: ThermoSequenase, Taq F667Y mutant DNA polymerase from Amersham Pharmacia Biotech
misincorporation of unlabeled ddNTPs (pFL-35:pBluescript): greater tendency to misincorporate unlabeled ddG opposite dT, and unlabeled ddT opposite dC
preference order of ddNTP bases [1]: G>C>A>T
Km for wrong nucleotide (ddGTP) opposite dT, lower than JDF-3 P410L/A485T (pBL34A:pBluescript II): 7 fold
misinsertion frequency for ddG:dT, higher than JDF-3 P410L/A485T (pBL34A:pBluescript II): ~17 fold
M.F. (M.E./I.E.) misinsertion frequency (pBL34A:pBluescript II; ddG:dT mispair): 0.053
misinsertion frequency for ddG:dT, higher than JDF-3 P410L/A485T (pBL34A:pBluescript II; listed as Taq F667Y mutant): approximately 17 fold
I.E. Vmax, TAMRA-ddATP insertion (pBL34A:pBluescript II; opposite dT, pBL34A primer): 1.9
M.E. Vmax, TAMRA-ddGTP misinsertion (pBL34A:pBluescript II; opposite dT, pBL34A primer): 16.9
Km (pBL34A:pBluescript II; opposite dT, pBL34A primer, read-out: I.E. Km, TAMRA-ddATP insertion): 0.0006 µM
Km (pBL34A:pBluescript II; opposite dT, pBL34A primer, read-out: M.E. Km, TAMRA-ddGTP misinsertion): 0.1 µM
